Test [1] concerns the target T1, P180C/E186C PTP1B (protein tyrosine phosphatase 1B) (Homo sapiens, UniProt P18031, E186C/P180C).
T1 sequence (P18031 1-435 P180C/E186C): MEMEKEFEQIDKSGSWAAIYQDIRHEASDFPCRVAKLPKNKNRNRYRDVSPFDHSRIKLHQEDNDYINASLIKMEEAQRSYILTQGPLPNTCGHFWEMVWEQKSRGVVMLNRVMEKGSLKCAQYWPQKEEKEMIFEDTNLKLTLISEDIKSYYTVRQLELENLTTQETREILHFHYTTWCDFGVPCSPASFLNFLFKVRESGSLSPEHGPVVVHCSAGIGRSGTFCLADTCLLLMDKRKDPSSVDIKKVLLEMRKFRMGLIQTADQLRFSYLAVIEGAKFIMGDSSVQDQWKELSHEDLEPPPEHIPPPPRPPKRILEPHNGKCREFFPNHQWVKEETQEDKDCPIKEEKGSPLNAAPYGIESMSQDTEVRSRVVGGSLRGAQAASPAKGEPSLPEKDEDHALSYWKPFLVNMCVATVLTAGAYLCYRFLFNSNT
In words: pNPP phosphatase assay with purified enzyme. The class given is biochemical.

Test [2] addresses P180C/P185C PTP1B (protein tyrosine phosphatase 1B) (Homo sapiens, UniProt P18031, P180C/P185C). Description: biochemical.
In test [3] the target is T1, P180C/E186C PTP1B (protein tyrosine phosphatase 1B). In words: biochemical.
Test [4] concerns the target wild-type PTP1B (protein tyrosine phosphatase 1B) (Homo sapiens, UniProt P18031). In words: biochemical.

The structures appear in SMILES notation.

For orientation: IC50 means the point on the concentration scale where inhibition reaches its midpoint. Lower therefore signals greater potency. The term Km denotes the substrate concentration at which the rate is half of its maximum.

P180C/P185C PTP1B (protein tyrosine phosphatase 1B), sequence (P18031 1-321 P180C/P185C limits assumed): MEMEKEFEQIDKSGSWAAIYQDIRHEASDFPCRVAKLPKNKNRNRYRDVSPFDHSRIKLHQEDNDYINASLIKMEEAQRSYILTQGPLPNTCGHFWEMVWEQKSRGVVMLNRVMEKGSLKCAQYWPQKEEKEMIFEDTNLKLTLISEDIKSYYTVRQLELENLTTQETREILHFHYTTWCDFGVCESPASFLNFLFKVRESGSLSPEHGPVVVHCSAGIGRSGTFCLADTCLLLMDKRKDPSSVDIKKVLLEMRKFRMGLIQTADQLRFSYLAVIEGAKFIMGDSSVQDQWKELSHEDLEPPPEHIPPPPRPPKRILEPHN
wild-type PTP1B (protein tyrosine phosphatase 1B), sequence (P18031 1-321 limits assumed): as the sequence (P18031 1-321 P180C/P185C limits assumed) above, with C180P, C185P counted along it

For the molecule `O=C1OC2(c3ccccc31)c1ccc(O)c([As]3SCCS3)c1Oc1c2ccc(O)c1[As]1SCCS1` [FlAsH-EDT2, 4′,5′-bis(1,3,2-dithioarsolan-2-yl)fluorescein], in test [1], the IC50 is roughly 130 nM.

Consider `O=[N+]([O-])c1ccc(OP(=O)(O)O)cc1` [para-nitrophenyl phosphate], for which the Michaelis constant (Km) is 2.03 ± 0.25 mM in test [2], 980 ± 90 µM in test [3] and 2.29 ± 0.21 mM in test [4].

Source of the values: paper PMC3288891 (2012).
